A short description of data set [1]: Plasma pharmacokinetics of midodrine and desglymidodrine after oral intake / colon absorption (general findings and presumptions). The note with it: for Cmax: 7.5 mg, presumption made in estimating the target profile, obtained after tablet administration. The data set is classed as in vivo, human.
The conditions of data set [2]: after oral administration of a single dose; cited from earlier work.

The structures appear in SMILES notation.

One may read the Cmax as the peak of the concentration-time curve. As a reminder, the Tmax is the time at which the peak concentration occurs. Regarding `COc1ccc(OC)c(C(O)CN)c1` (stereo not drawn) [desglymidodrine, alpha-(aminomethyl)-2,5-dimethoxy-benzenemethanol], in data set [1] (after application to the colon), the “tmax of desglymidodrine after colon absorption” value is reported as “approximately 3 hours”. Moreover, in data set [1] (human, in vivo), the maximum concentration (Cmax) was approximately 3.75 ng/mL. Moreover, the Tmax in data set [1] (human, in vivo, po) fell in the range of 1 to 2 h.
For `COc1ccc(OC)c(C(O)CNC(=O)CN)c1` (stereo not shown) [midodrine, 2-amino-N-[2-(2,5-dimethoxyphenyl)-2-hydroxyethyl]-acetamide], in data set [2], the “persistence of the pressor effect” value is 3 to 6 h and the “time until the pressor effect is manifest” value was 20 to 90 min. The Cmax in data set [1] (human, plasma, oral) was approximately 11 ng/mL. Besides, in data set [1] (midodrine itself in plasma), the “tmax after oral intake of midodrine” value is on record as “about 30 min”.

Values taken from patent US6761904B2 (Nycomed Austria GmbH, priority 2000, dated 2004).
